The results in this text go back to US12129246B1, “Hydroquinazoline derivatives for the treatment of a disease or disorder” (Novartis AG, priority 2023, dated 2024).

One experiment deals with T1, human NPR1 (Homo sapiens, UniProt P16066).
T1 construct: host or cells: CHO-K1
T1 sequence (P16066 33-1061): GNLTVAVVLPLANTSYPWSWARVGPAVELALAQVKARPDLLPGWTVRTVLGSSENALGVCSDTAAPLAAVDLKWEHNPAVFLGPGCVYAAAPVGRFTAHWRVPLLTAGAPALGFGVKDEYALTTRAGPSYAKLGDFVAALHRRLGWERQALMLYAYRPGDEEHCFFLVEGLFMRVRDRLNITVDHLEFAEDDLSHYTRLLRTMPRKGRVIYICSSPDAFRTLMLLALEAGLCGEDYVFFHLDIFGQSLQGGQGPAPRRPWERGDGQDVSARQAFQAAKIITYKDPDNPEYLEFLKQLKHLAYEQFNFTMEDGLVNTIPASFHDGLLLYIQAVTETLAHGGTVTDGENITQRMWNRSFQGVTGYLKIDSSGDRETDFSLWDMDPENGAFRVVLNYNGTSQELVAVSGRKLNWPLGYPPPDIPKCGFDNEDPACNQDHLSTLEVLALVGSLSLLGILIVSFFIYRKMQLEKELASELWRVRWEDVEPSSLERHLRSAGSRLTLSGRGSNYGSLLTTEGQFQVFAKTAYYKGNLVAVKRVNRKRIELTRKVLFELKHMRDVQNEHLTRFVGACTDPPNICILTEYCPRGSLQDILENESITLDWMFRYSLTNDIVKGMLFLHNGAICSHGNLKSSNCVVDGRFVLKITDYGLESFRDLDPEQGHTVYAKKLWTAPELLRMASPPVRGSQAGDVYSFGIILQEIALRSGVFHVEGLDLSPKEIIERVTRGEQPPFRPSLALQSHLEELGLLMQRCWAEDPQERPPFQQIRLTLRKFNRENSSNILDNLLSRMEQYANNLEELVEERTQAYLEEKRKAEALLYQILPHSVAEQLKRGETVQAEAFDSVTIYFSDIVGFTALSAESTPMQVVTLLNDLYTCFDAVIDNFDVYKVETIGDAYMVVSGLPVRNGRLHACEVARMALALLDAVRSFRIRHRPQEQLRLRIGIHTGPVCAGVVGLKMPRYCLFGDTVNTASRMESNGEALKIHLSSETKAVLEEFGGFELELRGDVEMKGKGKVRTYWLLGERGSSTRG
Kind of experiment: Cellular cGMP production assay, human NPR1 expressing CHO-K1 cells (CisBio HTRF). In kind it is cell-based. Conditions: for AC50: cGMP production, 30 min at 37° C., 12-point dose-response from 30 μM; for Human NPR1 Amax (% of ANP): maximum cGMP production as percentage of the maximum cGMP produced with ANP. In short, it runs like this:
(§1)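 Read-out was HTRF (excitation 317 nm, emission 665 nm), with cGMP quantified as Delta F against a calibrator standard curve. Beforehand, cells were exposed for 30 min at 37 °C to compound (30 μM top, twelve 3-fold steps) in IBMX-containing PBS/BSA buffer, then lysed.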

A further experiment has as its target monkey NPR1 (Macaca fascicularis, UniProt A0A7N9DBT9). Kind of experiment: Cellular cGMP production assay, monkey NPR1 expressing CHO-K1 cells (CisBio HTRF). It counts as cell-based. Conditions: for Monkey NPR1 Amax (% of ANP): maximum cGMP production as percentage of the maximum cGMP produced with ANP. In short, it runs like this: as §1
Where [1] appears, read: cGMP production, monkey NPR1 CHO-K1 cells, 30 min at 37° C., 12-point dose-response from 30 μM, read-out: Monkey NPR1 AC50.

Read-outs that look alike come from different tables or passages of the source.

monkey NPR1, sequence (A0A7N9DBT9 entry or part of it): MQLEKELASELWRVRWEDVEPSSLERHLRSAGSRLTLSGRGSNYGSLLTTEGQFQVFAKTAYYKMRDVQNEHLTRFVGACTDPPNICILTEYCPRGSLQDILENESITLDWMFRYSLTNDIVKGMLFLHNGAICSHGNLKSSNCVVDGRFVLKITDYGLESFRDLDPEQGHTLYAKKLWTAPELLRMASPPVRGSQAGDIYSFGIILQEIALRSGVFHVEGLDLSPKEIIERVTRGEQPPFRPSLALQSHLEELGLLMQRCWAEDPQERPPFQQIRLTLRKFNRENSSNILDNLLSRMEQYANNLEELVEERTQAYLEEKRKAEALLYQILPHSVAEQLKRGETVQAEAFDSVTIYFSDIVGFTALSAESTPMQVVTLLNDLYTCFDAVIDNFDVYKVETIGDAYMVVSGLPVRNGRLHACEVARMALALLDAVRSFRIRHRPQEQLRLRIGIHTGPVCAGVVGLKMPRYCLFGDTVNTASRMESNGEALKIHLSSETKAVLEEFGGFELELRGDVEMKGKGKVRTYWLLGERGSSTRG

Consider `CC[C@@H](Nc1nc2c(c(N[C@@H](CN3C4CCCC3CC4)c3ccccc3)n1)C[C@H](c1ccccc1)CC2)[C@H]1CC[C@H](C(=O)O)CC1` [Compound 49, (1R,4r)-4-((1R)-1-(((6R)-4-(((1R)-2-(8-azabicyclo[3.2.1]octan-8-yl)-1-phenylethyl)amino)-6-phenyl-5,6,7,8-tetrahydroquinazolin-2-yl)amino)propyl)cyclohexane-1-carboxylic acid], for which, on human NPR1, the half-maximal activity concentration (AC50) came out at 185 nM and the “Human NPR1 Amax (% of ANP)” value was 104.186 % of ANP. Besides, the AC50 on monkey NPR1 was 138 nM. Also, the “Monkey NPR1 Amax (% of ANP)” value at monkey NPR1 (monkey NPR1 CHO-K1 cells) is listed as 106.033 % of ANP.

Regarding `CC[C@H]([C@H]1CC[C@H](C(=O)O)CC1)N(C)c1nc2c(c(N[C@@H](CN3CCC[C@H](O)C3)c3cnn(C)c3)n1)C[C@H](c1ccccc1)CC2` [Compound 129, (1R,4r)-4-((R)-1-(((R)-4-(((R)-2-((S)-3-hydroxypiperidin-1-yl)-1-(1-methyl-1H-pyrazol-4-yl)ethyl)amino)-6-phenyl-5,6,7,8-tetrahydroquinazolin-2-yl)(methyl)amino)propyl)cyclohexane-1-carboxylic acid], on human NPR1, the AC50 was found to be 646 nM and the “Human NPR1 Amax (% of ANP)” value is 93.751 % of ANP. In addition, on monkey NPR1 (setting [1]), the AC50 was determined as 362 nM. In addition, the “Monkey NPR1 Amax (% of ANP)” value on monkey NPR1 (monkey NPR1 CHO-K1 cells) is recorded as 91.227 % of ANP.

As for `CC[C@@H](Nc1nc2c(c(N[C@@H](CN3CCCC[C@H]3C)c3cnn(C)c3)n1)C[C@H](c1ccccc1)CC2)[C@H]1CC[C@H](C(=O)O)CC1` [Compound 90, (1R,4r)-4-((R)-1-(((R)-4-(((R)-1-(1-methyl-1H-pyrazol-4-yl)-2-((R)-2-methylpiperidin-1-yl)ethyl)amino)-6-phenyl-5,6,7,8-tetrahydroquinazolin-2-yl)amino)propyl)cyclohexane-1-carboxylic acid], the half-maximal activity concentration (AC50) worked out at 313 nM at human NPR1 and 224 nM on monkey NPR1 (setting [1]). For the same compound, at human NPR1, the “Human NPR1 Amax (% of ANP)” value was 103.308 % of ANP. In addition, the “Monkey NPR1 Amax (% of ANP)” value at monkey NPR1 (monkey NPR1 CHO-K1 cells) is reported as 106.347 % of ANP.

Take `CC[C@@H](Nc1nc2c(c(N[C@@H](CN3C4CC5CC(C4)CC3C5)c3cnn(CC)c3)n1)C[C@H](c1ccccc1)CC2)[C@H]1CC[C@H](C(=O)O)CC1` [Compound 38, (1R,4r)-4-((R)-1-(((R)-4-(((R)-2-((1R,3R,5R,7R)-2-azaadamantan-2-yl)-1-(1-ethyl-1H-pyrazol-4-yl)ethyl)amino)-6-phenyl-5,6,7,8-tetrahydroquinazolin-2-yl)amino)propyl)cyclohexane-1-carboxylic acid]: at human NPR1, the activity was half-maximal at 161 nM (AC50) and the “Human NPR1 Amax (% of ANP)” value is recorded as 101.675 % of ANP. The half-maximal activity concentration (AC50) at monkey NPR1 (setting [1]) worked out at 83 nM. At monkey NPR1 (monkey NPR1 CHO-K1 cells), the “Monkey NPR1 Amax (% of ANP)” value is 101.007 % of ANP.

Regarding `CC[C@H]([C@H]1CC[C@H](C(=O)O)CC1)N(C)c1nc2c(c(N[C@@H](CN3C4CCCC3CC4)c3cnc(C)s3)n1)C[C@H](c1cccc(F)c1)CC2` [Compound 81, (1R,4r)-4-((1R)-1-(((6R)-4-(((1S)-2-(8-azabicyclo[3.2.1]octan-8-yl)-1-(2-methylthiazol-5-yl)ethyl)amino)-6-(3-fluorophenyl)-5,6,7,8-tetrahydroquinazolin-2-yl)(methyl)amino)propyl)cyclohexane-1-carboxylic acid], the values for the AC50 on human NPR1 and at monkey NPR1 were 271 nM and 175 nM, respectively. Besides, the “Human NPR1 Amax (% of ANP)” value on human NPR1 is recorded as 101.636 % of ANP. Further, on monkey NPR1 (monkey NPR1 CHO-K1 cells), the “Monkey NPR1 Amax (% of ANP)” value was 100.863 % of ANP.

As for `CC[C@@H](Nc1nc2c(c(N[C@@H](CN3CCCCC3)c3ccccc3)n1)C[C@@H](c1cccc(F)c1)CC2)[C@H]1CC[C@H](C(=O)O)CC1` [Compound 37, (1R,4r)-4-((R)-1-(((S)-6-(3-fluorophenyl)-4-(((R)-1-phenyl-2-(piperidin-1-yl)ethyl)amino)-5,6,7,8-tetrahydroquinazolin-2-yl)amino)propyl)cyclohexane-1-carboxylic acid], on human NPR1, the AC50 stood at 150 nM and the “Human NPR1 Amax (% of ANP)” value was 105.989 % of ANP. The AC50 at monkey NPR1 (setting [1]) was 158 nM. For the same compound, the “Monkey NPR1 Amax (% of ANP)” value on monkey NPR1 (monkey NPR1 CHO-K1 cells) was 107.224 % of ANP.

In the case of `CC[C@@H](Nc1nc2c(c(N[C@@H](CN3CCC[C@H](C)C3)c3cnn(C)c3)n1)C[C@](C)(c1ccccc1F)CC2)[C@H]1CC[C@H](C(=O)O)CC1` [Compound 20, (1R,4r)-4-((R)-1-(((R)-6-(2-fluorophenyl)-6-methyl-4-(((R)-1-(1-methyl-1H-pyrazol-4-yl)-2-((S)-3-methylpiperidin-1-yl)ethyl)amino)-5,6,7,8-tetrahydroquinazolin-2-yl)amino)propyl)cyclohexane-1-carboxylic acid], at human NPR1, half-maximal activity (AC50) was put at 109 nM and the “Human NPR1 Amax (% of ANP)” value is 95.253 % of ANP. In addition, the AC50 on monkey NPR1 (setting [1]) turned out to be 60 nM. Also, the “Monkey NPR1 Amax (% of ANP)” value on monkey NPR1 (monkey NPR1 CHO-K1 cells) was 92.710 % of ANP.

For `CC[C@@H](Nc1nc2c(c(N[C@@H](CN3CCC(C)CC3)c3cnn(C)c3)n1)C[C@H](c1ccccc1)CC2)[C@H]1CC[C@H](C(=O)O)CC1` [Compound 121, (1R,4r)-4-((R)-1-(((R)-4-(((R)-1-(1-methyl-1H-pyrazol-4-yl)-2-(4-methylpiperidin-1-yl)ethyl)amino)-6-phenyl-5,6,7,8-tetrahydroquinazolin-2-yl)amino)propyl)cyclohexane-1-carboxylic acid], the AC50 was 570 nM on human NPR1 and 382 nM at monkey NPR1 (setting [1]). The “Human NPR1 Amax (% of ANP)” value at human NPR1 is reported as 100.330 % of ANP. Moreover, the “Monkey NPR1 Amax (% of ANP)” value at monkey NPR1 (monkey NPR1 CHO-K1 cells) is 102.117 % of ANP.

With `CC[C@@H](Nc1nc2c(c(N[C@@H](CN3CCC[C@H](C)C3)c3cnn(C)c3)n1)C[C@](C)(c1ccc(F)cc1)CC2)[C@H]1CC[C@H](C(=O)O)CC1` [Compound 5, (1R,4r)-4-((R)-1-(((R)-6-(4-fluorophenyl)-6-methyl-4-(((R)-1-(1-methyl-1H-pyrazol-4-yl)-2-((S)-3-methylpiperidin-1-yl)ethyl)amino)-5,6,7,8-tetrahydroquinazolin-2-yl)amino)propyl)cyclohexane-1-carboxylic acid], on human NPR1, the activity was half-maximal at 72 nM (AC50) and the “Human NPR1 Amax (% of ANP)” value is 85.741 % of ANP. Moreover, at monkey NPR1 (setting [1]), the half-maximal activity concentration (AC50) stood at 68 nM. For the same compound, the “Monkey NPR1 Amax (% of ANP)” value on monkey NPR1 (monkey NPR1 CHO-K1 cells) was 104.503 % of ANP.

In the case of `CC[C@H]([C@H]1CC[C@H](C(=O)O)CC1)N(C)c1nc2c(c(N[C@@H](CN3CCC[C@H](C)C3)c3cnn(C)c3)n1)CN(c1cccc(Cl)c1)CC2` [Compound 170, (1R,4r)-4-((R)-1-((6-(3-chlorophenyl)-4-(((R)-1-(1-methyl-1H-pyrazol-4-yl)-2-((S)-3-methylpiperidin-1-yl)ethyl)amino)-5,6,7,8-tetrahydropyrido[4,3-d]pyrimidin-2-yl)(methyl)amino)propyl)cyclohexane-1-carboxylic acid], on human NPR1, the AC50 worked out at 2740 nM and the “Human NPR1 Amax (% of ANP)” value is recorded as 97.591 % of ANP. Further, the concentration at half-maximal activity (AC50) at monkey NPR1 (setting [1]) was 790 nM. The “Monkey NPR1 Amax (% of ANP)” value at monkey NPR1 (monkey NPR1 CHO-K1 cells) is 124.109 % of ANP.

For the compound `CC[C@@H](Nc1nc2c(c(N[C@@H](CN3CCCC4(CCC4)C3)c3cnn(CC)c3)n1)C[C@H](c1ccccc1)CC2)[C@H]1CC[C@H](C(=O)O)CC1` [Compound 126, (1R,4r)-4-((R)-1-(((R)-4-(((R)-1-(1-ethyl-1H-pyrazol-4-yl)-2-(6-azaspiro[3.5]nonan-6-yl)ethyl)amino)-6-phenyl-5,6,7,8-tetrahydroquinazolin-2-yl)amino)propyl)cyclohexane-1-carboxylic acid], on human NPR1, the AC50 worked out at 620 nM and the “Human NPR1 Amax (% of ANP)” value is 98.906 % of ANP. The AC50 at monkey NPR1 (setting [1]) was found to be 452 nM. Further, the “Monkey NPR1 Amax (% of ANP)” value at monkey NPR1 (monkey NPR1 CHO-K1 cells) is 102.477 % of ANP.
